ChEMBL document CHEMBL1201861, “Genomics of Drug Sensitity in Cancer screening data, Wellcome Trust Sanger Institute”
Several values for one entry are separate records, joined by “and”; a condition that tells them apart may be missing. Equal entries are not always repeated. Where a SMILES comes first, the peptide text is derived from it. The star is where a group is joined. Cbz = O=C(OCc1ccccc1)*

Experiments:
HC-1 = test: cells; type: functional, cell-based, Homo sapiens;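 also: growth inhibition of HC-1 cells measured by a cell viability assay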
Description: SANGER: Inhibition of human HC-1 cell growth in a cell viability assay.

JIYOYE = test: cells; type: functional, cell-based, Homo sapiens
Description: SANGER: Inhibition of human JiyoyeP-2003 cell growth in a cell viability assay.

Kasumi 1 = test: cells; type: functional, cell-based, Homo sapiens;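 also: growth inhibition of human Kasumi-1 cells, read out by a cell viability assay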
Description: SANGER: Inhibition of human KASUMI-1 cell growth in a cell viability assay.

LB373-MEL-D = test: cells; type: functional, cell-based, Homo sapiens;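 also: growth inhibition of the cell line, read out in a cell viability assay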
Description: SANGER: Inhibition of human LB373-MEL-D cell growth in a cell viability assay.

LC-1F = test: cells; type: functional, cell-based, Homo sapiens;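 also: growth inhibition of human LC-1F cells, read out with a cell viability assay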
Description: SANGER: Inhibition of human LC-1F cell growth in a cell viability assay.

MDA-MB-134-VI = test: cells; type: functional, cell-based, Homo sapiens
Description: SANGER: Inhibition of human MDA-MB-134-VI cell growth in a cell viability assay.

MHH-CALL-2 = test: cells; type: functional, cell-based, Homo sapiens;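 also: growth inhibition of the cell line, read out in a cell viability assay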
Description: SANGER: Inhibition of human MHH-CALL-2 cell growth in a cell viability assay.

NCI-H1522 = test: cells; type: functional, cell-based, Homo sapiens;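 also: growth inhibition of NCI-H1522 cells, read out with a cell viability assay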
Description: SANGER: Inhibition of human NCI-H1522 cell growth in a cell viability assay.

NCI-H1694 = test: cells; type: functional, cell-based, Homo sapiens;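 also: cell viability assay measuring inhibition of growth in human NCI-H1694 cells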
Description: SANGER: Inhibition of human NCI-H1694 cell growth in a cell viability assay.

SCC-3 = test: cells; type: functional, cell-based, Homo sapiens;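 also: cell viability assay measuring inhibition of SCC-3 cell growth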
Description: SANGER: Inhibition of human SCC-3 cell growth in a cell viability assay.

SIMA = test: cells; type: functional, cell-based, Homo sapiens;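 also: growth inhibition of SIMA cells, measured with a cell viability readout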
Description: SANGER: Inhibition of human SIMA cell growth in a cell viability assay.

SK-MM-2 = test: cells; type: functional, cell-based, Homo sapiens;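 also: growth inhibition of human SK-MM-2 cells, read out with a cell viability assay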
Description: SANGER: Inhibition of human SK-MM-2 cell growth in a cell viability assay.

SNU-C1 = test: cells; type: functional, cell-based, Homo sapiens;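 also: growth inhibition of SNU-C1 human cells, read out by a cell viability assay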
Description: SANGER: Inhibition of human SNU-C1 cell growth in a cell viability assay.

SR = test: cells; type: functional, cell-based, Homo sapiens
Description: SANGER: Inhibition of human SR cell growth in a cell viability assay.

TALL-1 = test: cells; type: functional, cell-based, Homo sapiens;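 also: growth inhibition of cultured human TALL-1 cells, read out by a cell viability assay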
Description: SANGER: Inhibition of human TALL-1 cell growth in a cell viability assay.

BC1 cell line = test: SANGER: Inhibition of human BC-1 cell growth in a cell viability assay.; type: functional, cell-based
U-698-M = test: cells; type: functional, cell-based, Homo sapiens
Description: SANGER: Inhibition of human U-698-M cell growth in a cell viability assay.

BOKU = test: cells; type: functional, cell-based; conditions: Homo sapiens;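 also: growth inhibition of the human BOKU cell line, read out by a cell viability assay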
Description: SANGER: Inhibition of human BOKU cell growth in a cell viability assay.

H4 = test: cells; type: functional, cell-based; conditions: Homo sapiens
Description: SANGER: Inhibition of human H4 cell growth in a cell viability assay.

HMV-2 cell line = test: cells; type: functional, cell-based; conditions: Homo sapiens;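 also: growth inhibition of HMV-II cells, read out with a cell viability assay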
Description: SANGER: Inhibition of human HMV-II cell growth in a cell viability assay.

HT-1080 = test: cells; type: functional, cell-based; conditions: Homo sapiens
Description: SANGER: Inhibition of human HT-1080 cell growth in a cell viability assay.

NCI-H1792 = test: cells; type: functional, cell-based; conditions: Homo sapiens;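 also: growth inhibition of human NCI-H1792 cells, read out as cell viability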
Description: SANGER: Inhibition of human NCI-H1792 cell growth in a cell viability assay.

NCI-H2052 = test: cells; type: functional, cell-based; conditions: Homo sapiens;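 also: growth inhibition of NCI-H2052 cells, read out with a cell viability assay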
Description: SANGER: Inhibition of human NCI-H2052 cell growth in a cell viability assay.

SW1783 = test: cells; type: functional, cell-based; conditions: Homo sapiens
Description: SANGER: Inhibition of human SW1783 cell growth in a cell viability assay.

BEN = test: cells; type: functional, cell-based; conditions: Homo sapiens;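 also: growth inhibition of the BEN cell line, read out with a cell viability assay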
Description: SANGER: Inhibition of human BEN cell growth in a cell viability assay.

CAL-85-1 = test: cells; type: functional, cell-based; conditions: Homo sapiens;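 also: growth inhibition of human CAL-85-1 cells, read out with a cell viability assay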
Description: SANGER: Inhibition of human CAL-85-1 cell growth in a cell viability assay.

SMILES	IC50 (HC-1; Homo sapiens, HC-1) [nM]	IC50 (JIYOYE; Homo sapiens, JIYOYE) [nM]	IC50 (Kasumi 1; Homo sapiens, Kasumi 1) [nM]	IC50 (LB373-MEL-D; Homo sapiens, LB373-MEL-D) [nM]	IC50 (LC-1F; Homo sapiens, LC-1F) [nM]	IC50 (MDA-MB-134-VI; Homo sapiens, MDA-MB-134-VI) [nM]	IC50 (MHH-CALL-2; Homo sapiens, MHH-CALL-2) [nM]	IC50 (NCI-H1522; Homo sapiens, NCI-H1522) [nM]	IC50 (NCI-H1694; Homo sapiens, NCI-H1694) [nM]	IC50 (SCC-3; Homo sapiens, SCC-3) [nM]	IC50 (SIMA; Homo sapiens, SIMA) [nM]	IC50 (SK-MM-2; Homo sapiens, SK-MM-2) [nM]	IC50 (SNU-C1; Homo sapiens, SNU-C1) [nM]	IC50 (SR; Homo sapiens, SR) [nM]	IC50 (TALL-1; Homo sapiens, TALL-1) [nM]	IC50 (BC1 cell line; Homo sapiens, BC1) [nM]	IC50 (U-698-M; Homo sapiens, U-698-M) [nM]	IC50 (BOKU) [nM]	other results
Nc1ccccc1NC(=O)c1ccc(CNC(=O)OCc2cccnc2)cc1 [ENTINOSTAT]	505	1350	> 5000	2270	1120	1290	1250	2220	4130	61	> 5000	399	> 5000	343	> 5000	434	> 5000	–	–
COc1cc(N2CCC(N3CCN(C)CC3)CC2)ccc1Nc1ncc(Cl)c(Nc2ccccc2S(=O)(=O)C(C)C)n1 [TAE-684]	> 2000	> 2000	> 2000	> 2000	> 2000	> 2000	29.5	> 2000	> 2000	< 7.81	> 2000	416	> 2000	2.77	> 2000	> 2000	> 2000	> 2000	–
CC(C)C[C@@H](C=O)NC(=O)[C@H](CC(C)C)NC(=O)[C@H](CC(C)C)NC(=O)OCc1ccccc1 [MG-132] (Cbz-Leu-Leu-Leu-aldehyde)	–	–	> 1000	–	–	–	–	–	> 1000	> 1000	–	–	–	–	–	> 1000	–	> 1000	IC50 (HC-1; hc-1): > 1000 nM; IC50 (JIYOYE; jiyoye): > 1000 nM; IC50 (Kasumi 1; kasumi 1): > 1000 nM; IC50 (LB373-MEL-D; lb373-mel-d): 242 nM and > 1000 nM; IC50 (LC-1F; lc-1f): > 1000 nM; IC50 (MDA-MB-134-VI; mda-mb-134-vi): > 1000 nM; IC50 (MHH-CALL-2; mhh-call-2): > 1000 nM; IC50 (NCI-H1522; nci-h1522): > 1000 nM; IC50 (NCI-H1694; nci-h1694): > 1000 nM; IC50 (SCC-3; scc-3): > 1000 nM; IC50 (SIMA; sima): > 1000 nM; IC50 (SK-MM-2; sk-mm-2): > 1000 nM; IC50 (SNU-C1; snu-c1): > 1000 nM; IC50 (SR; sr): > 1000 nM; IC50 (TALL-1; tall-1): > 1000 nM; IC50 (BC1 cell line; bc1): > 1000 nM; IC50 (U-698-M; u-698-m): > 1000 nM
CO[C@@H]1[C@H](N(C)C(=O)c2ccccc2)C[C@H]2O[C@]1(C)n1c3ccccc3c3c4c(c5c6ccccc6n2c5c31)C(=O)NC4 [MIDOSTAURIN]	–	–	–	–	–	–	–	–	–	–	–	–	–	–	–	> 512	–	–	IC50 (H4): 140 nM; IC50 (HMV-2 cell line): > 512 nM; IC50 (HT-1080): 160 nM; IC50 (NCI-H1792): 331 nM; IC50 (NCI-H2052): > 512 nM; IC50 (SW1783): > 512 nM; IC50 (BEN): > 512 nM; IC50 (CAL-85-1): > 512 nM
COc1ccc(N(C(=O)Oc2c(C)cccc2C)c2ccnc(Nc3ccc(N4CCN(C)CC4)cc3)n2)c(OC)c1	> 5120	> 5120	> 5120	> 5120	> 5120	> 5120	> 5120	> 5120	> 5120	> 5120	> 5120	> 5120	> 5120	> 5120	> 5120	> 5120	> 5120	1810	–
Cc1ccc(NC(=O)c2ccc(CN3CCN(C)CC3)cc2)cc1Nc1nccc(-c2cccnc2)n1 [IMATINIB]	> 2000	> 2000	> 2000	> 2000	> 2000	> 2000	> 2000	> 2000	> 2000	> 2000	> 2000	> 2000	> 2000	> 2000	> 2000	> 2000	> 2000	> 2000	–
C[C@@H](Oc1cc(-c2cnn(C3CCNCC3)c2)cnc1N)c1c(Cl)ccc(F)c1Cl [CRIZOTINIB]	> 2000	> 2000	> 2000	> 2000	> 2000	> 2000	683	> 2000	> 2000	357	> 2000	> 2000	> 2000	126	> 2000	> 2000	> 2000	> 2000	–
NC(=O)c1cccc(-c2cc(Nc3ccc(OC(F)(F)F)cc3)ncn2)c1	> 1280	> 1280	> 1280	> 1280	> 1280	> 1280	> 1280	> 1280	> 1280	> 1280	> 1280	> 1280	> 1280	> 1280	> 1280	> 1280	> 1280	> 1280	–
C=CC(=O)N1CCCC(Nc2nc(Nc3ccc(N(C)C(=O)CC)cc3)nc3[nH]cnc23)C1 (stereo unspecified)	> 10200	> 10200	> 10200	> 10200	> 10200	> 10200	> 10200	> 10200	> 10200	> 10200	> 10200	> 10200	> 10200	> 10200	> 10200	> 10200	> 10200	> 10200	–
CC(C)C[C@H](NC(=O)[C@H](Cc1ccccc1)NC(=O)c1cnccn1)B(O)O [BORTEZOMIB]	0.975	5	> 20	0.7	3.74	> 20	> 20	> 20	7.58	2.37	> 20	1.09	> 20	1.25	> 20	2.31	> 20	–	–
Cc1cc(N2CCOCC2)cc2[nH]c(-c3c(NC[C@@H](O)c4cccc(Cl)c4)cc[nH]c3=O)nc12	> 5120	5000	> 5120	> 5120	> 5120	> 5120	> 5120	> 5120	> 5120	> 5120	> 5120	630	2540	2050	> 5120	> 5120	> 5120	3150	–
